Reference: paper PMC12040169 (PLOS Biology, 2025)

assay: in vitro; conditions: human, hela cells, % viability

Row | Structure (SMILES) | viability at 28.5 h, 10 µM
1 | COCCCn1c(=O)[nH]c2ncc(-c3ccc(C(=O)N4CCOCC4)cc3)nc21 [CBK064366] | 97.8%
2 | O=C(Nc1ccc(-c2ccc(NC(=O)c3ccncc3)cc2)cc1)c1ccncc1 [CBK262321] | 98.9%
3 | CC(CN1CCOCC1)OC(=O)c1ccco1 (stereo not drawn) [CBK264606C] | 92.9%
4 | Cc1nn(-c2ccccc2)c(Cl)c1CN1C(=O)NC2(CCCC2)C1=O [CBK305070] | 91.9%
5 | O=C(O)c1cccc(NS(=O)(=O)c2ccc(-c3cnco3)cc2)c1 [CBK155726] | 97.4%
6 | NC(=O)CN1CC2(CCN(Cc3ccc(Cl)c(Cl)c3)CC2)c2ccccc21 [CBK126775] | 109%
7 | CCOC(=O)N1CCC(NS(=O)(=O)/C=C/c2ccccc2)CC1 [CBK045458] | 107%
8 | COc1ccccc1-c1nccnc1N1CCN(c2ccncc2)CC1 [CBK037081] | 87.8%
9 | COc1ccccc1OCC(=O)N1CCC(Cn2cncn2)(C2CCCCC2)CC1 [CBK136797] | 91.9%
10 | CN1CCN(S(=O)(=O)c2ccc3c4c(cccc24)C(=O)N3)CC1 [CBK266647] | 111%
11 | Cc1ccc(NS(=O)(=O)c2cc3c(OC4CCNCC4)nccc3s2)cc1 [CBK046309C] | 96%
12 | CC(=O)c1sc2nc(C)cc(C)c2c1N [CBK131882] | 90.5%
13 | CCc1cc2c(NCc3ccccc3)ncnc2s1 [CBK057944] | 91.4%
14 | COc1cc(C#N)ccc1OCc1ccc2nc(C(F)(F)F)cc(Cl)c2c1 [CBK002589] | 98.3%
15 | O=C(NC(=S)Nc1cccc(Cl)c1)c1cncc(Br)c1 [CBK264618] | 94.1%
16 | N#CCCN(C1CCCCC1)S(=O)(=O)c1cccc2nsnc12 [CBK009093] | 94%
17 | O=C1N=C(NC2C3CC4CC(C3)CC2C4)OC12CCCC2 (stereo not drawn) [CBK113576] | 94.2%
18 | Cc1ccc2nc(NCCC(=O)O)nc(-c3ccccc3)c2c1 [CBK266537] | 97.4%
19 | Cn1c(CN2CCOCC2)nnc1SCC(=O)Nc1cccc(F)c1 [CBK269629] | 80.2%
20 | COc1ccc(CCNS(=O)(=O)N(C)C)cc1 [CBK264348] | 93%
21 | CC(=O)Oc1cccc(C(=O)O)c1C [CBK038235] | 87.7%
22 | O=C(CCC1CCCO1)NC(Cc1ccsc1)c1cccnc1 (stereo not drawn) [CBK285159] | 87.6%

Row | Structure (SMILES) | viability at 28.5 h, 10 µM
23 | COc1cc(CNC(=O)N2CCN(C3CCN(C)CC3)CC2)cc(OC)c1OC [CBK155893] | 93.3%
24 | COc1ccc(-c2c[nH]c3c(=S)[nH]cnc23)cc1 [CBK288462] | 60.5%
25 | CCOC(=O)N1CCN(C(=O)c2oc3ccccc3c2C)CC1 [CBK023696] | 92.4%
26 | O=c1[nH]c(-c2ccccc2)nc2c1CN(Cc1ccc(F)cc1)CC2 [CBK282329] | 93.3%
27 | NC(=O)NC(CC(=O)N1CCN(c2nccs2)CC1)c1cccc(Br)c1 (stereo not drawn) [CBK304548] | 90.6%
28 | O=S(=O)(NCCn1cccc1)c1ccc2ccccc2c1 [CBK270211] | 90.4%
29 | c1csc(-c2nc3[nH]c4ccccc4n3n2)c1 [CBK264118] | 102%
30 | CC(NC(=O)N(Cc1ccc(CN)cc1)Cc1cnc(-c2ccccc2)[nH]1)c1cccc2ccccc12 (stereo not drawn) [CBK046149C] | 97.1%
31 | CC(CC(=O)N1CCC(Oc2ccccc2F)CC1)n1cccn1 (stereo not drawn) [CBK282118] | 84.6%
32 | CCn1c(=O)[nH]c(=O)c2cnc(-c3ccc(OC)cc3)nc21 [CBK291259] | 107%
33 | CC(C)c1cc(C(=O)NCC2CCCN(C(C)C)C2)n(C)n1 (stereo not drawn) [CBK282566] | 95.8%
34 | O=C(O)C(Cc1ccccc1)N1C(=O)c2cccc([N+](=O)[O-])c2C1=O (stereo not drawn) [CBK115372] | 95.8%
35 | CCC1CCCCN1C(=O)c1cccs1 (stereo not drawn) [CBK074214] | 104%
36 | CCCC/C=C/c1cncc(NC(C)CCCC(C)(C)O)n1 (stereo not drawn) [CBK065505] | 104%
37 | Cc1cc(-c2nccnc2NCCCN2CCOCC2)cc(C)c1O [CBK036598] | 92%
38 | CSc1ccccc1CNC(=O)c1cc(Br)cnc1N(C)C(C)=O [CBK076478] | 106%
39 | O=C(CC(CN1CCCN(c2ncccn2)CC1)C(=O)O)NCc1ccccc1 (stereo not drawn) [CBK286856] | 87.2%
40 | CCn1ncnc1CN1CCOc2ccc(CO)cc2C1 [CBK307245] | 80.7%
41 | CC(=O)c1cc(C(=O)Nc2ccc(NC(=O)C(=O)O)cc2)oc1C [CBK264011] | 95.4%
42 | CC(=O)OCc1ccc(CN2CCCCCC2c2cc(C)no2)o1 (stereo not drawn) [CBK283007] | 100%
43 | O=C(Nc1ccc(I)cc1)c1ccc(CN2CCc3ccccc3C2)cc1 [CBK262672] | 101%
44 | Cc1noc(NS(=O)(=O)c2ccc(NC(=O)/C=C/c3ccc(C(C)C)cc3)cc2)c1C [CBK265430] | 89.2%

Row | Structure (SMILES) | viability at 28.5 h, 10 µM
45 | Cc1cc(C)n(C(=O)CCC(=O)Nc2cccc(Cl)c2C)n1 [CBK263851] | 99.3%
46 | Cc1ccc(C(C)C(=O)N2CCC(C(=O)c3cccnc3)CC2)cc1 (stereo not drawn) [CBK283516] | 93.5%
47 | Cc1cc(Cl)ccc1NC(=O)CCC(=O)N/N=C/c1ccc(O)cc1 [CBK261974] | 89.6%
48 | COc1cccc2sc(NC(=O)c3ccc4occc4c3)nc12 [CBK149278] | 96.8%
49 | Fc1ccc(C(c2nnnn2C2CCCCC2)N2CCCCC2)cc1 (stereo not drawn) [CBK141670] | 94.9%
50 | O=C1c2ccccc2C(Nc2cccnc2)N1c1ccccn1 (stereo not drawn) [CBK113239] | 80.5%
51 | CCCn1nc(C)c(-c2cncn2CC(C)N2CCC(C)CC2)c1C (stereo not drawn) [CBK281791] | 85.2%
52 | Cc1cc(NC(=O)CN2CCC(CNc3ncccc3C#N)C2)on1 (stereo not drawn) [CBK306127] | 87.8%
53 | c1ccc2c(CCN3CCN(c4nccnc4OC4CCCCC4)CC3)c[nH]c2c1 [CBK082847T] | 100%
54 | O=C1N=C(NC2CC3CCC2C3)SC12CCC2 (stereo not drawn) [CBK073933] | 96.2%
55 | CN1C(=O)COc2ccccc2CCCC[C@@H]2[C@H]1CCCN2C(=O)CNS(C)(=O)=O [CBK292118] | 113%
56 | Cc1nnc(CN(C)C2CCN(Cc3ccc4c(c3)CCC4)C2)n1C (stereo not drawn) [CBK304450] | 104%
57 | O=C(NC[C@H]1CC[C@H](c2cc(C(=O)N3CCOCC3)c3ccccc3n2)CC1)C1CCCC1 [CBK285979] | 89.9%
58 | O=C(C1CCC1)N1CCC(c2nnc(-c3ccsc3)o2)CC1 [CBK283405] | 104%
59 | CCCc1n[nH]c(-c2ccccc2Cl)c1C(=O)OCC [CBK113547] | 107%
60 | Cc1cc(N2CCOC(c3cccs3)C2)ccn1 (stereo not drawn) [CBK304691] | 96.2%
61 | FCCOc1cncc(Cl)n1 [CBK113553] | 115%
62 | Oc1cccc(/C=N/c2ccc(Cc3ccc(/N=C/c4cccc(O)c4)cc3)cc2)c1 [CBK261230] | 103%
63 | O=C(Nc1ccc(N2CCN(Cc3ccccc3)CC2)cc1)c1ccc(-c2ccccc2)cc1 [CBK268622] | 109%
64 | COc1ccc(Nc2nc(-c3ccccc3)c(C)s2)c(OC)c1 [CBK131709] | 106%

same assay, conditions: human, hela cells, % viability, bulk resorufin, single well

Row | Structure (SMILES) | viability at 28.5 h, 10 µM
65 | COc1ccc(CC(=O)N2CCC(C#N)(c3ccccc3)CC2)c(OC)c1 [CBK091388] | 91.4%
66 | O=C(O)COc1ccccc1/C=C1\C(=O)NC(=O)N(c2ccc(O)cc2)C1=O [CBK265436] | 85.2%
